Reference: US11505543B2, “4-oxo-3,4-dihydroquinazoline compounds as inhibitors of human immunodeficiency virus replication” (VIIV HEALTHCARE UK (NO.5) LIMITED, priority 2018, dated 2022)

Legend:
[1] = Compound cytotoxicity, XTT-based colorimetric assay; assay type: cell-based; conditions: human, uninfected MT2 cells, day 4, XTT
How it was run: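 Run under the antiviral-assay protocol but without virus. Viability was read on day 4 and CC50 values were derived from the readout.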

[2] = system: recombinant NL4-3 virus (nef section replaced with Renilla luciferase gene) in MT-2 cells; assay: HIV cell culture assay (antiviral activity, luciferase readout); assay type: cell-based; conditions: Renilla, NL43, MT-2 cells infected for 4-5 days with recombinant NL4-3 Renilla luciferase virus, serial dilutions of compound
How it was run: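 EC50 was derived by median-effect curve fitting of luciferase activity. The signal comes from MT-2 cells infected for 4–5 days with 293T-produced NL4-3 reporter virus, nef partly replaced by Renilla luciferase, in the presence of serially diluted compound.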

| Structure (SMILES) | CC50 at 4 day [1] | EC50 [2] |
| --- | --- | --- |
| CCS(=O)(=O)c1ccccc1-c1ccc2c(=O)n(-c3ccc(Cl)c4c(NS(C)(=O)=O)nn(C)c34)c([C@H](Cc3cc(F)cc(F)c3)NC(=O)Cn3nc(C(F)F)c4c3C(F)(F)[C@@H]3C[C@H]43)nc2c1 (atropisomer, axis not shown; (aR)) [Example 119, N-((S)-1-(3-(4-chloro-1-methyl-3-(methylsulfonamido)-1H-indazol-7-yl)-7-(2-(ethylsulfonyl)phenyl)-4-oxo-3,4-dihydroquinazolin-2-yl)-2-(3,5-difluorophenyl)ethyl)-2-((3bS,4aR)-3-(difluoromethyl)-5,5-difluoro-3b,4,4a,5-tetrahydro-1H-cyclopropa[3,4]cyclopenta[1,2-c]pyrazol-1-yl)acetamide] | > 500 nM | 0.1 nM |
| CC(C)S(=O)(=O)c1ccccc1-c1ccc2c(=O)n(-c3ccc(Cl)c4c(NS(C)(=O)=O)nn(C)c34)c([C@H](Cc3cc(F)cc(F)c3)NC(=O)Cn3nc(C(F)F)c4c3C(F)(F)[C@@H]3C[C@H]43)nc2c1 (atropisomer, axis not shown; (aR)) [Example 120, N-((S)-1-(3-(4-chloro-1-methyl-3-(methylsulfonamido)-1H-indazol-7-yl)-7-(2-(isopropylsulfonyl)phenyl)-4-oxo-3,4-dihydroquinazolin-2-yl)-2-(3,5-difluorophenyl)ethyl)-2-((3bS,4aR)-3-(difluoromethyl)-5,5-difluoro-3b,4,4a,5-tetrahydro-1H-cyclopropa[3,4]cyclopenta[1,2-c]pyrazol-1-yl)acetamide] | > 500 nM | 0.13 nM |
| CCS(=O)(=O)c1cccc(-c2ccc3c(=O)n(-c4ccc(Cl)c5c(NS(C)(=O)=O)nn(C)c45)c([C@H](Cc4cc(F)cc(F)c4)NC(=O)Cn4nc(C(F)F)c5c4C(F)(F)[C@@H]4C[C@H]54)nc3c2)c1 (atropisomer, axis not shown; (aR)) [Example 121, N-((S)-1-(3-(4-chloro-1-methyl-3-(methylsulfonamido)-1H-indazol-7-yl)-7-(3-(ethylsulfonyl)phenyl)-4-oxo-3,4-dihydroquinazolin-2-yl)-2-(3,5-difluorophenyl)ethyl)-2-((3bS,4aR)-3-(difluoromethyl)-5,5-difluoro-3b,4,4a,5-tetrahydro-1H-cyclopropa[3,4]cyclopenta[1,2-c]pyrazol-1-yl)acetamide] | > 500 nM | 0.11 nM |
| CCCS(=O)(=O)c1cccc(-c2ccc3c(=O)n(-c4ccc(Cl)c5c(NS(C)(=O)=O)nn(C)c45)c([C@H](Cc4cc(F)cc(F)c4)NC(=O)Cn4nc(C(F)F)c5c4C(F)(F)[C@@H]4C[C@H]54)nc3c2)c1 (atropisomer, axis not shown; (aR)) [Example 122, N-((S)-1-(3-(4-chloro-1-methyl-3-(methylsulfonamido)-1H-indazol-7-yl)-4-oxo-7-(3-(propylsulfonyl)phenyl)-3,4-dihydroquinazolin-2-yl)-2-(3,5-difluorophenyl)ethyl)-2-((3bS,4aR)-3-(difluoromethyl)-5,5-difluoro-3b,4,4a,5-tetrahydro-1H-cyclopropa[3,4]cyclopenta[1,2-c]pyrazol-1-yl)acetamide] | > 500 nM | 0.17 nM |
| CC(C)S(=O)(=O)c1cccc(-c2ccc3c(=O)n(-c4ccc(Cl)c5c(NS(C)(=O)=O)nn(C)c45)c([C@H](Cc4cc(F)cc(F)c4)NC(=O)Cn4nc(C(F)F)c5c4C(F)(F)[C@@H]4C[C@H]54)nc3c2)c1 (atropisomer, axis not shown; (aR)) [Example 123, N-((S)-1-(3-(4-chloro-1-methyl-3-(methylsulfonamido)-1H-indazol-7-yl)-7-(3-(isopropylsulfonyl)phenyl)-4-oxo-3,4-dihydroquinazolin-2-yl)-2-(3,5-difluorophenyl)ethyl)-2-((3bS,4aR)-3-(difluoromethyl)-5,5-difluoro-3b,4,4a,5-tetrahydro-1H-cyclopropa[3,4]cyclopenta[1,2-c]pyrazol-1-yl)acetamide] | > 500 nM | 0.15 nM |
| CS(=O)(=O)Nc1nn(CC(F)F)c2c(-n3c([C@H](Cc4cc(F)cc(F)c4)NC(=O)Cn4nc(C(F)F)c5c4C(F)(F)[C@@H]4C[C@H]54)nc4cc(-c5ncccn5)ccc4c3=O)ccc(Cl)c12 (atropisomer, axis not shown; (aR)) [Example 124, N-((S)-1-(3-(4-chloro-1-(2,2-difluoroethyl)-3-(methylsulfonamido)-1H-indazol-7-yl)-4-oxo-7-(pyrimidin-2-yl)-3,4-dihydroquinazolin-2-yl)-2-(3,5-difluorophenyl)ethyl)-2-((3bS,4aR)-3-(difluoromethyl)-5,5-difluoro-3b,4,4a,5-tetrahydro-1H-cyclopropa[3,4]cyclopenta[1,2-c]pyrazol-1-yl)acetamide] | > 500 nM | 0.058 nM |
| Cc1nccnc1-c1ccc2c(=O)n(-c3ccc(Cl)c4c(NS(C)(=O)=O)nn(CC(F)F)c34)c([C@H](Cc3cc(F)cc(F)c3)NC(=O)Cn3nc(C(F)F)c4c3C(F)(F)[C@@H]3C[C@H]43)nc2c1 (atropisomer, axis not shown; (aR)) [Example 125, N-((S)-1-(3-(4-chloro-1-(2,2-difluoroethyl)-3-(methylsulfonamido)-1H-indazol-7-yl)-7-(3-methylpyrazin-2-yl)-4-oxo-3,4-dihydroquinazolin-2-yl)-2-(3,5-difluorophenyl)ethyl)-2-((3bS,4aR)-3-(difluoromethyl)-5,5-difluoro-3b,4,4a,5-tetrahydro-1H-cyclopropa[3,4]cyclopenta[1,2-c]pyrazol-1-yl)acetamide] | > 500 nM | 0.054 nM |
| Cc1nccnc1-c1ccc2c(=O)n(-c3ccc(Cl)c4c(NS(=O)(=O)C5CC5)nn(CC(F)F)c34)c([C@H](Cc3cc(F)cc(F)c3)NC(=O)Cn3nc(C(F)F)c4c3C(F)(F)[C@@H]3C[C@H]43)nc2c1 (atropisomer, axis not shown; (aR)) [Example 126, N-((S)-1-(3-(4-chloro-3-(cyclopropanesulfonamido)-1-(2,2-difluoroethyl)-1H-indazol-7-yl)-7-(3-methylpyrazin-2-yl)-4-oxo-3,4-dihydroquinazolin-2-yl)-2-(3,5-difluorophenyl)ethyl)-2-((3bS,4aR)-3-(difluoromethyl)-5,5-difluoro-3b,4,4a,5-tetrahydro-1H-cyclopropa[3,4]cyclopenta[1,2-c]pyrazol-1-yl)acetamide] | > 500 nM | 0.052 nM |
| O=C(Cn1nc(C(F)F)c2c1C(F)(F)[C@@H]1C[C@H]21)N[C@@H](Cc1cc(F)cc(F)c1)c1nc2cc(-c3ncccn3)ccc2c(=O)n1-c1ccc(Cl)c2c(NS(=O)(=O)C3CC3)nn(CC(F)F)c12 (atropisomer, axis not shown; (aR)) [Example 127, N-((S)-1-(3-(4-chloro-3-(cyclopropanesulfonamido)-1-(2,2-difluoroethyl)-1H-indazol-7-yl)-4-oxo-7-(pyrimidin-2-yl)-3,4-dihydroquinazolin-2-yl)-2-(3,5-difluorophenyl)ethyl)-2-((3bS,4aR)-3-(difluoromethyl)-5,5-difluoro-3b,4,4a,5-tetrahydro-1H-cyclopropa[3,4]cyclopenta[1,2-c]pyrazol-1-yl)acetamide] | > 500 nM | 0.059 nM |
| Cc1cc(C)nc(-c2ccc3c(=O)n(-c4ccc(Cl)c5c(NS(C)(=O)=O)nn(CC(F)F)c45)c([C@H](Cc4cc(F)cc(F)c4)NC(=O)Cn4nc(C(F)F)c5c4C(F)(F)[C@@H]4C[C@H]54)nc3c2)n1 (atropisomer, axis not shown; (aR)) [Example 128, N-((S)-1-(3-(4-chloro-1-(2,2-difluoroethyl)-3-(methylsulfonamido)-1H-indazol-7-yl)-7-(4,6-dimethylpyrimidin-2-yl)-4-oxo-3,4-dihydroquinazolin-2-yl)-2-(3,5-difluorophenyl)ethyl)-2-((3bS,4aR)-3-(difluoromethyl)-5,5-difluoro-3b,4,4a,5-tetrahydro-1H-cyclopropa[3,4]cyclopenta[1,2-c]pyrazol-1-yl)acetamide] | > 500 nM | 0.069 nM |
| Cc1cc(C)nc(-c2ccc3c(=O)n(-c4ccc(Cl)c5c(NS(=O)(=O)C6CC6)nn(CC(F)F)c45)c([C@H](Cc4cc(F)cc(F)c4)NC(=O)Cn4nc(C(F)F)c5c4C(F)(F)[C@@H]4C[C@H]54)nc3c2)n1 (atropisomer, axis not shown; (aR)) [Example 129, N-((S)-1-(3-(4-chloro-3-(cyclopropanesulfonamido)-1-(2,2-difluoroethyl)-1H-indazol-7-yl)-7-(4,6-dimethylpyrimidin-2-yl)-4-oxo-3,4-dihydroquinazolin-2-yl)-2-(3,5-difluorophenyl)ethyl)-2-((3bS,4aR)-3-(difluoromethyl)-5,5-difluoro-3b,4,4a,5-tetrahydro-1H-cyclopropa[3,4]cyclopenta[1,2-c]pyrazol-1-yl)acetamide] | > 500 nM | 0.095 nM |
| Cc1ncc(-c2ccc3c(=O)n(-c4ccc(Cl)c5c(NS(C)(=O)=O)nn(C)c45)c([C@H](Cc4cc(F)cc(F)c4)NC(=O)Cn4nc(C(F)F)c5c4C(F)(F)[C@@H]4C[C@H]54)nc3c2)cn1 (atropisomer, axis not shown; (aR)) [Example 130, N-((S)-1-(3-(4-chloro-1-methyl-3-(methylsulfonamido)-1H-indazol-7-yl)-7-(2-methylpyrimidin-5-yl)-4-oxo-3,4-dihydroquinazolin-2-yl)-2-(3,5-difluorophenyl)ethyl)-2-((3bS,4aR)-3-(difluoromethyl)-5,5-difluoro-3b,4,4a,5-tetrahydro-1H-cyclopropa[3,4]cyclopenta[1,2-c]pyrazol-1-yl)acetamide] | > 500 nM | 0.03 nM |
